Assay results reported in PMC10662218 (RSC Advances, 2023).

Target: Human insulin (monomeric insulin) (Homo sapiens, UniProt P01308)
Experiment: intrinsic Tyr fluorescence quenching
Type: binding
Conditions: insulin 25 μM, compound 2-24 μM, double-log

Sequence of Human insulin (monomeric insulin) (P01308 25-54): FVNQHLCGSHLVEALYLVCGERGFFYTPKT
Sequence of Human insulin (monomeric insulin) (P01308 90-110): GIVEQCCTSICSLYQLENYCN

Row | SMILES | K b, 10^4 (M^-1) / 293 K
1 | COc1cccc(/C=N/C(C)(C)C)c1O [3a, (E)-2-((tert-butylimino)methyl)-6-methoxyphenol] | 2.18 × 10^4 M^-1
2 | COc1cccc(/C=N/C(CO)(CO)CO)c1O [3b, (E)-2-((2-hydroxy-3-methoxybenzylidene)amino)-2-(hydroxymethyl)propane-1,3-diol] | 17.09 × 10^4 M^-1
